Reference: the NIST ThermoML archive (doi:10.1021/je400214b)
Numbers after ± are expanded uncertainties.

Key:
[1] = Liquid; for mass density: 293.15 K, 101.33 kPa, Vibrating tube method; for vapor or sublimation pressure: Ebulliometric method (Recirculating still)
[2] = refractive index (Na D-line) (dimensionless); settings: 293.15 K; 101.33 kPa; Liquid; Standard Abbe refractometry

Row | Structure (SMILES) | mass density [1] | vapor or sublimation pressure ([1]; 351.15 K) | refractive index [2] | vapor or sublimation pressure ([1]; 350.15 K) | vapor or sublimation pressure ([1]; 483.15 K) | vapor or sublimation pressure ([1]; 449.15 K)
1 | CCO [ethanol] | 788.9 ± 0.2 kg/m3 | 96.5 ± 9.7 kPa | 1.361 ± 0.0007 | – | – | –
2 | C=CC#N [acrylonitrile] | 806 ± 0.2 kg/m3 | – | 1.3909 ± 0.0007 | 96.5 ± 9.7 kPa | – | –
3 | O=[N+]([O-])c1ccccc1 [nitrobenzene] | 1198.8 ± 0.2 kg/m3 | – | 1.5529 ± 0.0007 | – | 96.5 ± 9.7 kPa | –
4 | CCCCCCCO [heptan-1-ol] | – | – | – | – | – | 96.5 ± 9.7 kPa
